These results are taken from patent publication US20130085105A1, “Transdermal Administration Of Peptides” (The Provost, Fellows and Scholars of the College of Holy …, priority 2010, published 2013).

Data set [1] can be described thus: In vitro transdermal permeation, diffusion cell, pig epidermis. The data set is classed as in vitro ADME, domestic pigs. The protocol: The viable epidermal layer was removed from the flanks of freshly sacrificed four month-old female domestic pigs. The flank area of each animal was carefully shaved and the upper 200 μm of skin (Meyer, W., et al., Curr. Prob. Dermatol., 7: 39-52, 1978; de Jalón, et al., J. Control. Rel., 75:191-197, 2001) was harvested using an electric dermatome (Robbins Instruments, Chatham, N.J., U.S.A.). Pigskin epidermal specimens were frozen at −18° C. between layers of PBS-soaked tissue paper enclosed in aluminum foil for up to two weeks prior to use in in vitro permeation studies.
A custom made finite dosing diffusion cell (AGB Scientific, Dublin, Ireland, FIG. 1) based upon and modified from the Keshary-Chien type diffusion cell was used for in vitro permeation studies.
Three to five diffusion cells were used in each permeation experiment and monitoring was performed over a 48 hour period. The cells were linked in series to a thermostatically controlled circulation bath set at 35° C. to mimic human skin surface temperature. Each cell was placed on a stir-plate set at a defined stirring rate of 1,000 rpm. The surface area for permeation provided by each cell was 3.14 cm^2.
Data collected from each permeation study included:
1) the average maximum flux obtained in 48 hours (Jmax),
2) the total absorption characterized as the total weight of peptide delivered transdermally into the receiver compartment over a 48 hour period,
3) the lag time to detectable flux which was equivalent to the latest sampling time at which no peptide was detectable by HPLC analysis of the receiver solution, and
4) an equivalent 48-hour steady state flux was determined by obtaining the slope of the best-fit line for a plot of cumulative flux per unit area versus time (described by McDaid, D. M. et al., Int. J. Pharm., 133:71-83, 1996).
Fresh hairless mouse skin samples or fresh or freshly thawed pig skin samples were mounted onto the diffusion cell with the SC topmost and in contact with the donor system. A rubber or plastic ring was placed on top of the skin sample to secure it in position. The combination of the diffusion cell top, the skin and the rubber ring was securely fastened together by means of a threaded cap. A recorded volume of receiver solution was added to the receiver compartment and maintained at 35° C. The receiver solution was 60/40 (v/v) PBS/propylene glycol (pH 7.1). The propylene glycol fraction was used to increase the solubility of the somatostatin-fatty acid salts. Previous work reported by Morgan et al. (J. Pharm. Sci., 87:1213-1218, 1998) has shown that a 50/50 water/propylene glycol receptor solution had no detrimental effect on the barrier integrity of both hairless mouse and porcine skin.
The receiver solution was allowed to equilibrate at 35° C. for 30 minutes. The experiment was initiated by the application of 1 ml of donor solution containing approximately 5 mg free base peptide in DMSO to the skin surface followed by sealing of the donor compartment with Parafilm®. A narrow-bore hypodermic needle was used to withdraw 1 ml samples from the receiver compartment via the sampling port; at each sampling time, an equal volume of drug-free receiver solution was immediately added back to the receiver compartment. Samples were analyzed by HPLC.
HPLC determination of peptide content in the receiver solution along with the known surface area of skin used (3.14 cm^2) allowed for calculation of transdermal flux (in units of μg/cm^2/hr) for each time point. Panels 1 and 2 of FIG. 2 show flux profiles obtained for the oleate salts of Compound A and Compound B in DMSO which far exceeded the flux profiles for the myristate, octanoate, decanoate, linoleate, nonanote, acetate and laurate salts of Compound A as well as the acetate salt of Compound B in DMSO. […]

A short description of data set [2]: Solubility of somatostatin fatty-acid salts. The data set is classed as physicochemical. Particulars: 24 hours. On the procedure:
The solubilities of Compound A and Compound B oleate were determined in deionized water, phosphate-buffered saline (PBS; pH 7.4) and n-octanol. Analysis was carried out by placing an excess of each salt with 1 ml of the selected solvent into four 4 ml sealed HPLC vials. The samples were allowed to equilibrate at 37° C. for 24 hours with shaking. Each of the four dispersions was then filtered through a 0.2 μm nylon membrane (Pall Gelman, Ann Arbor, Mich., U.S.A.). Prior to HPLC analysis, the n-octanol samples were diluted 1:100 with methanol and the PBS and deionized water samples were diluted 1:10 in de-ionized water. Table 7 lists the solubilities of Compound A and Compound B oleate salts in deionized water, PBS and n-octanol.

Data set [3] can be described thus: pH of donor vehicles containing Compound B oleate. The data set is classed as physicochemical. On the procedure:
The donor vehicles described herein were prepared at or close to neutral pH; this pH is close to the pH at which the fatty acid salts were synthesized and isolated. Because this work focused upon fatty acid peptide salts, a neutral pH was preferred to maintain molecular pairing. As described by Fini et al. (Int. J. Pharm., 187:163-173, 1999), adverse pH conditions can cause salt/ion pairs to dissociate, resulting in the loss of many properties beneficial to increasing transdermal flux, for example lipophilicity. […] Significant dissociation would have led to distortion of the flux profiles due to the formation of free oleic acid, in itself a potent penetration enhancer.

The mark [4] stands for this setting: pig epidermis overlaid with microporous polypropylene membrane, EtOH/Water/Cineole + 5% (w/v) HPC, 5 mg/ml.
The mark [5] stands for this setting: pig epidermis, donor 55% EtOH 40% Water 5% Cineole, 5 mg/ml free base peptide.
[6] abbreviates: pig epidermis, donor 80% Prop. Glycol 15% Decanol 5% Cineole.
Where [7] appears, read: pig epidermis, donor 80% Prop. Glycol 15% Dodecanol 5% Cineole.

Take “[4-(2-hydroxyethyl)]-1-piperazinylacetyl-D-Phe-c(Cys-Tyr-D-Trp-Lys-Abu-Cys)-Thr-NH2 [Compound B di-oleate]”: the Jmax was determined as 4.200 μg/cm^2/hr in data set [1] (setting [4]), 9.224 μg/cm^2/hr in data set [1] (setting [5]), 6.085 μg/cm^2/hr in data set [1] (setting [6]) and 3.983 μg/cm^2/hr in data set [1] (setting [7]). The Jss in data set [1] (setting [4]) is listed as 0.309 μg/cm^2/hr; in data set [1] (setting [5]) it was 5.552 μg/cm^2/hr; in data set [1] (setting [6]), 4.539 μg/cm^2/hr; in data set [1] (setting [7]) it was 3.335 μg/cm^2/hr. The “Lag Time” value in data set [1] (setting [4]) worked out at 1 h; in data set [1] (setting [5]), 1 h; in data set [1] (setting [6]) it was 3.5 h; in data set [1] (setting [7]), 5 h. The “Total Absorption” value was found to be 56.89 μg/48 hr in data set [1] (setting [4]), 814.44 μg/48 hr in data set [1] (setting [5]), 917.18 μg/48 hr in data set [1] (setting [6]) and 600.35 μg/48 hr in data set [1] (setting [7]). The “Solubility PBS” value in data set [2] (PBS pH 7.4, 37° C.) is 1302 µg/mL. Moreover, the “Solubility DI H2O” value in data set [2] (deionized water, 37° C.) stood at 50 µg/mL. The “Solubility n-Octanol” value in data set [2] (n-octanol, 37° C.) came to 136900 µg/mL. Also, the pH amounted to 6.89 in data set [3] (approx. 5 mg/ml in 55% EtOH 40% H2O 5% 1,8-Cineole), 7.08 in data set [3] (approx. 5 mg/ml in 80% Prop. Glycol 15% Decanol 5% 1,8-Cineole) and 7.56 in data set [3] (approx. 5 mg/ml in 80% Prop. Glycol 15% Dodecanol 5% 1,8-Cineole).
